# Experimental data reported in patent US9902736B2, “1-oxo/acylation-14-acylated oridonin derivative, preparation method therefor and application thereof” (HANGZHOU BENSHENG PHARMACEUTICAL CO., LTD., priority 2012, dated 2018).
# Legend:
# Kasumi-1 = experiment: Leukemia cell growth inhibition, MTT, 72 h; type: cell-based; settings: Homo sapiens
# Excerpt: (§1) Leukemia cell lines: leukemia cell lines: K562/adr (drug-resistant, chronic myeloid leukemia, CML), NB4 (acute promyelocytic leukemia, AML), Kasumi-1 (acute myeloid leukemia M2 type, AML-M2), Jurkat (acute lymphoblastic leukemia, ALL), all of which were donated by Cancer Research Institute of Zhejiang University, China; and H9 (acute lymphoblastic leukemia, ALL), which was purchased from China Center for Type Culture Collection.
# (§2) 6000 well-growing leukemia cells were obtained and inoculated into wells of a 96-well cell culture plate. […] On the next day, the 1-oxo/acylated-14-acylated oridonin derivatives of different concentrations were added and mixed uniformly. The plate was placed in a carbon dioxide cell incubator (5% CO2) at 37° C. and was incubated for 72 hours. Then the viable cell concentration was determined by MTT method.
# K562/ADR = experiment: Leukemia cell growth inhibition, MTT, 72 h; type: cell-based; settings: Homo sapiens
# Excerpt: as §1, §2
# RPMI 8226 = experiment: Multiple myeloma cell growth inhibition, MTT, 72 h; type: cell-based; settings: Homo sapiens
# Experimental: Multiple myeloma cell lines: RPMI8226 (multiple myeloma), purchased from Fuxiang Bio-tech Co. Ltd., Shanghai, China.
# as §2, with “well-growing” for “well-growing leukemia”, “and” for “and was”
# U87-MG = experiment: Solid tumor cell growth inhibition, MTT, 72 h; type: cell-based; settings: Homo sapiens, U-87 MG
# Experimental: (§3) 6000 well-growing human solid tumor cells were obtained and inoculated into wells of a 96-well cell culture plate. The culture medium was DMEM High Glucose cell culture medium containing 10% fetal bovine serum. The plate was placed in a carbon dioxide cell incubator (5% CO2) at 37° C. and incubated for 24 hours. After added with 1-oxo/acylated-14-acylated oridonin derivatives of different concentration and mixed uniformly, the plate was placed in a carbon dioxide cell incubator (5% CO2) at 37° C. and incubated for 72 hours. Then the viable cell concentration was determined by MTT method.
# PC-3 = experiment: Solid tumor cell growth inhibition, MTT, 72 h; type: cell-based; settings: Homo sapiens
# Experimental: as §3
# PANC-1 = experiment: Solid tumor cell growth inhibition, MTT, 72 h; type: cell-based; settings: Homo sapiens
# Experimental: as §3
# A549 = experiment: Solid tumor cell growth inhibition, MTT, 72 h; type: cell-based; settings: Homo sapiens
# Experimental: as §3
# Hep G2 = experiment: Solid tumor cell growth inhibition, MTT, 72 h; type: cell-based; settings: Homo sapiens, HepG2
# Experimental: as §3
# SK-OV-3 = experiment: Solid tumor cell growth inhibition, MTT, 72 h; type: cell-based; settings: Homo sapiens, SK-OV-3, 72 h, MTT; for IC50: read-out: IC50 SK-OV-3; for IC90: read-out: IC90 SK-OV-3
# Experimental: as §3
# CaEs-17 = experiment: Solid tumor cell growth inhibition, MTT, 72 h; type: cell-based; settings: Homo sapiens, CaEs17
# Experimental: as §3
# Becap-37 = experiment: Solid tumor cell growth inhibition, MTT, 72 h; type: cell-based; settings: Homo sapiens
# Experimental: as §3
# MG-63 = experiment: Solid tumor cell growth inhibition, MTT, 72 h; type: cell-based; settings: Homo sapiens
# Experimental: as §3
# RKO = experiment: Solid tumor cell growth inhibition, MTT, 72 h; type: cell-based; settings: Homo sapiens
# Experimental: as §3
# Hela = experiment: Solid tumor cell growth inhibition, MTT, 72 h; type: cell-based, human; settings: Homo sapiens, HeLa; 72 h, MTT
# Experimental: as §3
# MGC-803 = experiment: Solid tumor cell growth inhibition, MTT, 72 h; type: cell-based, human; settings: for IC50 / IC90: Homo sapiens, MGC-803, 72 h, MTT
# Experimental: as §3
# CNE = experiment: Solid tumor cell growth inhibition, MTT, 72 h; type: cell-based, human; settings: Homo sapiens, CNE; 72 h, MTT
# Experimental: as §3
# Hep-2 = experiment: Solid tumor cell growth inhibition, MTT, 72 h; type: cell-based, human; settings: for IC50 / IC90: Homo sapiens, HEp-2, 72 h, MTT
# Experimental: as §3
# H9 = experiment: Leukemia cell growth inhibition, MTT, 72 h; type: cell-based, human; settings: for IC50 / IC90: Homo sapiens, H9, 72 h, MTT
# Excerpt: as §1, §2
# NB4 = experiment: Leukemia cell growth inhibition, MTT, 72 h; type: cell-based, human; settings: for IC50 / IC90: Homo sapiens, NB-4, 72 h, MTT
# Excerpt: as §1, §2
# Jurkat = experiment: Leukemia cell growth inhibition, MTT, 72 h; type: cell-based, human; settings: Homo sapiens, Jurkat; 72 h, MTT
# Excerpt: as §1, §2
smiles,measurement,setting,value
C=C1C(=O)[C@]23[C@H](OC(=O)C4CCN(S(=O)(=O)CC)CC4)[C@H]1CC[C@H]2[C@@]12CO[C@@]3(O)[C@@H](O)[C@@H]1C(C)(C)CCC2=O [BS-OR-038],IC50,Kasumi-1,1.1 µg/mL
same,IC90,Kasumi-1,3.95 µg/mL
same,IC50,K562/ADR,1.43 µg/mL
same,IC90,K562/ADR,3.92 µg/mL
same,IC50,RPMI 8226,0.97 µg/mL
same,IC90,RPMI 8226,3.58 µg/mL
same,IC50,U87-MG,1.98 µg/mL
same,IC90,U87-MG,6.78 µg/mL
same,IC50,PC-3,5.3 µg/mL
same,IC90,PC-3,11.6 µg/mL
same,IC50,PANC-1,4.7 µg/mL
same,IC90,PANC-1,11.4 µg/mL
same,IC50,A549,6.1 µg/mL
same,IC90,A549,10.2 µg/mL
same,IC50,Hep G2,3.37 µg/mL
same,IC90,Hep G2,13.2 µg/mL
same,IC50,SK-OV-3,5.3 µg/mL
same,IC90,SK-OV-3,11.6 µg/mL
same,IC50,CaEs-17,2.18 µg/mL
same,IC90,CaEs-17,7.64 µg/mL
same,IC50,Becap-37,3.04 µg/mL
same,IC90,Becap-37,7.59 µg/mL
same,IC50,MG-63,0.95 µg/mL
same,IC90,MG-63,4.89 µg/mL
same,IC50,RKO,1.01 µg/mL
same,IC90,RKO,1.93 µg/mL
same,IC50,Hela,3.01 µg/mL
same,IC90,Hela,6.16 µg/mL
same,IC50,MGC-803,3.36 µg/mL
same,IC90,MGC-803,9.55 µg/mL
same,IC50,CNE,3.29 µg/mL
same,IC90,CNE,10.9 µg/mL
same,IC50,Hep-2,4.34 µg/mL
same,IC90,Hep-2,13.9 µg/mL
same,IC50,H9,1.42 µg/mL
same,IC90,H9,3.01 µg/mL
same,IC50,NB4,0.44 µg/mL
same,IC90,NB4,2.63 µg/mL
same,IC50,Jurkat,1.36 µg/mL
same,IC90,Jurkat,5.91 µg/mL
C=C1C(=O)[C@]23[C@H](OC(=O)c4ccc(Cl)cc4)[C@H]1CC[C@H]2[C@@]12CO[C@@]3(O)[C@@H](O)[C@@H]1C(C)(C)CC[C@@H]2OC(C)=O [BS-OR-093],IC50,Kasumi-1,0.41 µg/mL
same,IC90,Kasumi-1,1.31 µg/mL
same,IC50,K562/ADR,0.37 µg/mL
same,IC90,K562/ADR,1.57 µg/mL
same,IC50,RPMI 8226,0.2 µg/mL
same,IC90,RPMI 8226,1.55 µg/mL
same,IC50,U87-MG,0.56 µg/mL
same,IC90,U87-MG,1.89 µg/mL
same,IC50,PC-3,1.6 µg/mL
same,IC90,PC-3,5.12 µg/mL
same,IC50,PANC-1,1.69 µg/mL
same,IC90,PANC-1,9.36 µg/mL
same,IC50,A549,1.78 µg/mL
same,IC90,A549,6.68 µg/mL
same,IC50,Hep G2,0.96 µg/mL
same,IC90,Hep G2,7.13 µg/mL
same,IC50,SK-OV-3,1.6 µg/mL
same,IC90,SK-OV-3,5.12 µg/mL
same,IC50,CaEs-17,0.86 µg/mL
same,IC90,CaEs-17,5.21 µg/mL
same,IC50,Becap-37,1.1 µg/mL
same,IC90,Becap-37,1.99 µg/mL
same,IC50,MG-63,0.45 µg/mL
same,IC90,MG-63,2.31 µg/mL
same,IC50,RKO,0.41 µg/mL
same,IC90,RKO,0.92 µg/mL
same,IC50,Hela,1.02 µg/mL
same,IC90,Hela,3.45 µg/mL
same,IC50,MGC-803,0.79 µg/mL
same,IC90,MGC-803,6.73 µg/mL
same,IC50,CNE,1.31 µg/mL
same,IC90,CNE,5.02 µg/mL
same,IC50,Hep-2,1.42 µg/mL
same,IC90,Hep-2,6.91 µg/mL
same,IC50,H9,0.06 µg/mL
same,IC90,H9,0.33 µg/mL
same,anti-H9 cell line activity increased,H9; as compared with oridonin,22 fold
same,IC50,NB4,0.05 µg/mL
same,IC90,NB4,0.47 µg/mL
same,anti-NB4 cell line activity increased,NB4; as compared with oridonin,15 fold
same,IC50,Jurkat,0.44 µg/mL
same,IC90,Jurkat,3.03 µg/mL
C=C1C(=O)[C@]23[C@H](OC(=O)c4ccc(OC)cc4)[C@H]1CC[C@H]2[C@@]12CO[C@@]3(O)[C@@H](O)[C@@H]1C(C)(C)CCC2OC(C)=O (stereo partly shown) [BS-OR-091],IC50,Kasumi-1,0.52 µg/mL
same,IC90,Kasumi-1,1.22 µg/mL
same,IC50,K562/ADR,0.45 µg/mL
same,IC90,K562/ADR,1.72 µg/mL
same,IC50,RPMI 8226,0.37 µg/mL
same,IC90,RPMI 8226,1.8 µg/mL
same,IC50,U87-MG,0.67 µg/mL
same,IC90,U87-MG,1.98 µg/mL
same,IC50,PC-3,1.75 µg/mL
same,IC90,PC-3,4.71 µg/mL
same,IC50,PANC-1,1.69 µg/mL
same,IC90,PANC-1,5.65 µg/mL
same,IC50,A549,2.38 µg/mL
same,IC90,A549,7.54 µg/mL
same,IC50,Hep G2,1.4 µg/mL
same,IC90,Hep G2,6.28 µg/mL
same,IC50,SK-OV-3,1.75 µg/mL
same,IC90,SK-OV-3,4.71 µg/mL
same,IC50,CaEs-17,0.99 µg/mL
same,IC90,CaEs-17,4.83 µg/mL
same,IC50,Becap-37,1.26 µg/mL
same,IC90,Becap-37,2.48 µg/mL
same,IC50,MG-63,0.49 µg/mL
same,IC90,MG-63,1.46 µg/mL
same,IC50,RKO,0.41 µg/mL
same,IC90,RKO,0.93 µg/mL
same,IC50,Hela,1.28 µg/mL
same,IC90,Hela,3.51 µg/mL
same,IC50,MGC-803,0.59 µg/mL
same,IC90,MGC-803,5.7 µg/mL
same,anti-MGC-803 activity increased,MGC-803; in comparison with oridonin,~10 fold
same,IC50,CNE,1.18 µg/mL
same,IC90,CNE,4.52 µg/mL
same,IC50,Hep-2,0.96 µg/mL
same,IC90,Hep-2,6.65 µg/mL
same,anti-Hep-2 activity increased,Hep-2; in comparison with oridonin,~5 fold
same,IC50,H9,0.14 µg/mL
same,IC90,H9,0.46 µg/mL
same,IC50,NB4,0.13 µg/mL
same,IC90,NB4,0.73 µg/mL
same,IC50,Jurkat,0.55 µg/mL
same,IC90,Jurkat,2.31 µg/mL
